Test results: patent US20140066365A1, “USE OF CALIXARENES ASSOCIATED WITH AN ANTIBIOTIC IN THE TREATMENT OF BACTERIAL INFECTIONS” (priority 2011, published 2014)
Values after ≈ are worked out from the molar mass of the structure shown. Like-named read-outs stand apart in the source and are kept apart here.

How the values were obtained:
Format in all cases: cell-based
[1] = test system: PaR2: Pseudomonas aeruginosa; conditions: for CA-SFM Interpretation: Cd CA-SFM 2011; for CLSI Interpretation: Cd CLSI 2011; for EUCAST Interpretation: Cd EUCAST 2011; for Diameter: Table G1; for Results: Table G1, against Dmin-Dmax; for diameter in mm: Table G2
Method: (§1) The bacterial and antibiogramidentification is carried out by the VITEK 2 system (bioMérieux) and by the disk diffusion technique

[2] = test system: EcR1: Penicillinase-Producing Escherichia coli without Associated Resistance; test: Antibiogram by the disk diffusion technique; conditions: Table A1; for Diameter: EcR1, disk diffusion; for Results: EcR1, interpretation of the diameter against Dmin Dmax
Method: (§2) 5.1 EcR1: Penicillinase-Producing Escherichia coli without Associated Resistance The bacterial and antibiogramidentification is carried out by the VITEK 2 system (bioMérieux) and by the disk diffusion technique.

[3] = test system: EcR2: Cephalosporinase-Hyperproducing Strain of Escherichia coli; test: Antibiogram by the disk diffusion technique; conditions: Table B1
Method: (§3) The bacterial and antibiogramidentification is carried out by the VITEK 1 system (bioMérieux) and by the disk diffusion technique

[4] = test system: PaR5: Pseudomonas aeruginosa; test: Antibiogram by the disk diffusion technique; conditions: for Diameter / Results / CA-SFM Interpretation / CLSI Interpretation / EUCAST Interpretation: PaR5; for Diameter / Results: Table I1; for Results: against Dmin-Dmax; for diameter in mm: disk diffusion inhibition diameter, strain PaR5; for CA-SFM Interpretation / CLSI Interpretation / EUCAST Interpretation: disk diffusion; for CA-SFM Interpretation: versus critical diameter CA-SFM 2011; for CLSI Interpretation: versus critical diameter CLSI 2011; for EUCAST Interpretation: versus critical diameter EUCAST 2011, for ** antibiotics the disk load differs and the EUCAST interpretation is not applicable
Method: as §1

[5] = test system: EcR2: Cephalosporinase-Hyperproducing Strain of Escherichia coli; test: Antibiogram, MIC by the VITEK 1 system; conditions: for CA-SFM Interpretation / CLSI Interpretation / EUCAST Interpretation: from MIC; for CA-SFM Interpretation: Cc CA-SFM 2011; for CLSI Interpretation: Cc CLSI 2011; for EUCAST Interpretation: Cc EUCAST 2011; for MIC: Escherichia coli, read-out: MIC
Method: as §3

[6] = test system: EcR1: Penicillinase-Producing Escherichia coli without Associated Resistance; test: Antibiogram, MIC by the VITEK 2 system; conditions: for CA-SFM Interpretation: EcR1, MIC against Cc CA-SFM 2011; for CLSI Interpretation: EcR1, MIC against Cc CLSI 2011; for EUCAST Interpretation: EcR1, MIC against Cc EUCAST 2011; for Results: EcR1, interpretation of the MIC, Table A1; for MIC: Escherichia coli
Method: as §2

[7] = test system: EcR3: ESBL-Producing Escherichia coli; test: Antibiogram by the disk diffusion technique; conditions: for CA-SFM Interpretation: Cd CA-SFM 2011; for CLSI Interpretation: Cd CLSI 2011; for EUCAST Interpretation: Cd EUCAST 2011; for Diameter: Table C1; for Results: Table C1, against Dmin Dmax; for diameter in mm: Table C2
Method: The bacterial and antibiogramidentification is carried out by the VITEK 2 system (bioMerieux) and by the disk diffusion technique

[8] = test system: SaR3: Meticillin-Resistant Staphylococcus aureus; test: Antibiogram by the disk diffusion technique; conditions: for Diameter: Table E1; for diameter in mm: Table E2; for CA-SFM Interpretation: Cd CA-SFM 2011; for Results: Table E1, against Dmin Dmax
Method: as §1

[9] = test system: SaR4: Meticillin-Resistant Staphylococcus aureus; test: Antibiogram, MIC by the VITEK 2 system; conditions: SaR4; for CA-SFM Interpretation: Cc CA-SFM 2011
Method: as §1

[10] = test system: SaR1: Meticillin-Resistant Staphylococcus aureus without Associated Resistance; test: Antibiogram, inhibition diameter (Table D1); conditions: for Results: from diameter, against Dmin Dmax
Method: (§4) The bacterial and antibiogramidentification is carried out by the VITEK 2 system (bioMérieux)

[11] = test system: SaR1: Meticillin-Resistant Staphylococcus aureus without Associated Resistance; test: Antibiogram, MIC by the VITEK 2 system; conditions: SaR1; for CA-SFM Interpretation: Cc CA-SFM 2011; for Results: from MIC
Method: as §4

[12] = test system: PaR3: Pseudomonas aeruginosa; test: Antibiogram, MIC by the VITEK 2 system
Method: as §4

[13] = EcR1, Table A2, read-out: MIC mg/L (diameter in mm)
[14] = EcR1, VITEK 2, Table A1, read-out: MIC

`CCN[C@@H]1C[C@H](N)[C@@H](O[C@H]2OC(CN)=CC[C@H]2N)[C@H](O)[C@H]1O[C@H]1OC[C@](C)(O)[C@H](NC)[C@H]1O` [Netilmicin] was tested, and the “CA-SFM Interpretation” value [1] was “Susceptible”, the “CLSI Interpretation” value [1] was “Susceptible” and the “EUCAST Interpretation” value [1] was “Susceptible”. The Diameter [1] was 19 mm, the Results [1] was “Susceptible” and the diameter in mm [1] was 19 mm. For the same molecule, the Diameter [2] was 24 mm, the Results [2] was “Susceptible” and the Diameter ([3]; EcR2, disk diffusion) was 21. The Results ([3]; EcR2, rows that print a diameter) was “Susceptible”, the Diameter [4] was 28 mm and the Results [4] was “Susceptible”. The diameter in mm [4] was 28 mm, the “CA-SFM Interpretation” value [4] was “Susceptible” and the “CLSI Interpretation” value [4] was “Susceptible”. The “EUCAST Interpretation” value [4] was “Susceptible”, the “CA-SFM Interpretation” value ([5]; EcR2) was “Susceptible” and the “CLSI Interpretation” value ([5]; EcR2) was “Susceptible”. The “EUCAST Interpretation” value ([5]; EcR2) was “Susceptible”, the MIC ([5]; EcR2, VITEK 1, Table B1) was ≤ 1 µg/mL and the MIC ([5]; EcR2, Table B2, MIC) was ≤ 1 µg/mL. For the same molecule, the “CA-SFM Interpretation” value [6] was “Susceptible”, the “CLSI Interpretation” value [6] was “Susceptible” and the “EUCAST Interpretation” value [6] was “Susceptible”. The Results [6] was “Susceptible”, the MIC [6, 13] was ≤ 1 mg/L and the MIC [6, 14] was ≤ 1 mg/L. The “CA-SFM Interpretation” value [7] was “Resistant”, the “CLSI Interpretation” value [7] was “Resistant” and the “EUCAST Interpretation” value [7] was “Resistant”. For the same molecule, the Diameter [7] was 10 mm, the Results [7] was “Resistant” and the diameter in mm [7] was 10 mm.
Molecule `CC1COc2c(N3CCN(C)CC3)c(F)cc3c(=O)c(C(=O)O)cn1c23` (stereo not shown) [Ofloxacin] has a Diameter [4] of 11 mm, a Diameter [8] of 6 mm and a diameter in mm [8] of 6 mm. The MIC ([9]; Staphylococcus aureus, Table F1, read-out: MIC) was ≥ 8 µg/mL, the MIC ([9]; Staphylococcus aureus, Table F2, MIC, read-out: MIC) was ≥ 8 µg/mL and the MIC [6, 13] was ≤ 0.25 mg/L. The MIC [6, 14] was ≤ 0.25 mg/L, the Diameter [10] was 24 mm and the “MIC” value ([11]; Table D2) was 1 µg/mL (≈ 2.77 µM). It also gave an MIC ([11]; Staphylococcus aureus, Table D1, read-out: MIC) of 1 µg/mL (≈ 2.77 µM).
In the case of `CC1(C)S[C@@H]2[C@H](NC(=O)[C@H](C(=O)O)c3ccsc3)C(=O)N2[C@H]1C(=O)O` [Ticarcillin], the “CA-SFM Interpretation” value [1] is reported as “Resistant”, the “CLSI Interpretation” value [1] is reported as “Resistant” and the “EUCAST Interpretation” value [1] is reported as “Resistant”. The Diameter [1] was 10 mm, the Results [1] was “Resistant” and the diameter in mm [1] was 10 mm. The Diameter [2] was 6 mm, the Results [2] was “Resistant” and the Diameter [4] was 32 mm. For the same molecule, the Results [4] was “Susceptible”, the diameter in mm [4] was 32 mm and the “CA-SFM Interpretation” value [4] was “Susceptible”. The “CLSI Interpretation” value [4] was “Susceptible”, the “EUCAST Interpretation” value [4] was “Susceptible” and the Results ([5]; EcR2, Table B1) was “Intermediate”. For the same molecule, the “CA-SFM Interpretation” value ([5]; EcR2) was “Resistant”, the “CLSI Interpretation” value ([5]; EcR2) was “Resistant” and the “EUCAST Interpretation” value ([5]; EcR2) was “Resistant”. For the same molecule, the MIC ([5]; EcR2, VITEK 1, Table B1) was 32 µg/mL (≈ 83.2 µM), the MIC ([5]; EcR2, Table B2, MIC) was 32 µg/mL (≈ 83.2 µM) and the “CA-SFM Interpretation” value [6] was “Resistant”. The “CLSI Interpretation” value [6] was “Resistant”, the “EUCAST Interpretation” value [6] was “Resistant” and the Results [6] was “Resistant”. The MIC [6, 13] was ≥ 128 mg/L, the MIC [6, 14] was ≥ 128 mg/L and the “CA-SFM Interpretation” value ([12]; Cc CA-SFM 2011) was “Resistant”. For the same molecule, the “CLSI Interpretation” value ([12]; Cc CLSI 2011) was “Resistant”, the “EUCAST Interpretation” value ([12]; Cc EUCAST 2011) was “Resistant” and the MIC ([12]; Pseudomonas aeruginosa, Table H2, read-out: MIC) was ≥ 128 µg/mL. For the same molecule, the MIC ([12]; Table H1) was “≧128”, the Results ([12]; Table H1) was “Resistant” and the “CA-SFM Interpretation” value [7] was “Resistant”. The “CLSI Interpretation” value [7] was “Resistant”, the “EUCAST Interpretation” value [7] was “Resistant” and the Diameter [7] was 6 mm. The Results [7] was “Resistant” and the diameter in mm [7] was 6 mm.
Pristinamycin was tested, and the “CA-SFM Interpretation” value [8] was “Susceptible”, the Diameter [8] was 23 mm and the Results [8] was “Susceptible”. For the same molecule, the diameter in mm [8] was 23 mm, the “MIC mg/L” value ([9]; Table F1) was “≦2 mg/L” and the Results ([9]; Table F1, MIC) was “Susceptible”. For the same molecule, the MIC ([9]; Table F2, MIC) was “≦2 mg/L”, the “CA-SFM Interpretation” value ([9]; from MIC) was “Susceptible” and the Diameter [10] was 25 mm. For the same molecule, the Results [10] was “Susceptible”, the “CA-SFM Interpretation” value [11] was “Susceptible” and the “MIC mg/L” value ([11]; Table D1) was “≦0.5 mg/L”. The Results ([11]; Table D1) was “Susceptible” and the “MIC mg/L” value ([11]; Table D2) was “≦0.5 mg/L”.
In the case of Teicoplanin, the “CA-SFM Interpretation” value [8] is reported as “Susceptible”, the “CLSI Interpretation” value ([8]; Cd CLSI 2011) is reported as “Susceptible” and the Results [8] is reported as “Susceptible”. The diameter in mm [8] was 27 mm, the “MIC mg/L” value ([9]; Table F1) was “≦4 mg/L” and the Results ([9]; Table F1, MIC) was “Susceptible”. The MIC ([9]; Table F2, MIC) was “≦4 mg/L”, the “CA-SFM Interpretation” value ([9]; from MIC) was “Susceptible” and the “CLSI Interpretation” value ([9]; from MIC, Cc CLSI 2011) was “Susceptible”. For the same molecule, the “EUCAST Interpretation” value ([9]; from MIC, Cc EUCAST 2011) was “Susceptible”, the Results [10] was “Susceptible” and the “CA-SFM Interpretation” value [11] was “Susceptible”. The “CLSI Interpretation” value ([11]; Cc CLSI 2011) was “Susceptible”, the “EUCAST Interpretation” value ([11]; Cc EUCAST 2011) was “Susceptible” and the “MIC mg/L” value ([11]; Table D1) was “≦0.5 mg/L”. For the same molecule, the Results ([11]; Table D1) was “Susceptible” and the “MIC mg/L” value ([11]; Table D2) was “≦0.5 mg/L”.
